Read-outs that look alike come from different tables or passages of the source.
Key:
MOLM-13 cells = assay: Cell viability assay (CellTiter-Glo) in MOLM-13 cells, alone or with gilteritinib; format: cell-based; conditions: Homo sapiens, MOLM-13, 72 h, MOLM-13 cells, three days, CellTiter-Glo
MV4;11 cells = assay: Cell viability assay (CellTiter-Glo) in MV4;11 cells, alone or with gilteritinib; format: cell-based; conditions: Homo sapiens, MV4-11, 72 h, MV4;11 cells, three days, CellTiter-Glo, read-out: MV4
[1] = compound alone (without gilteritinib), read-out: MOLM-13 IC50
[2] = with gilteritinib 20 nM, read-out: MOLM-13 IC50 gilteritinib
[3] = compound alone (without gilteritinib), 11 IC50
[4] = with gilteritinib 10 nM, 11 IC50 gilteritinib

Compound	IC50 (MOLM-13 cells; [1])	IC50 (MOLM-13 cells; [2])	IC50 (MV4;11 cells; [3])	IC50 (MV4;11 cells; [4])
O=C1CCC(N2C(=O)c3ccc(NC[C@H]4C[C@H](n5cc(-c6nccc7cc[nH]c67)c(C6CC6)n5)C4)cc3C2=O)C(=O)N1 (stereo partly drawn) [GS-291, 5-(((trans-3-(3-Cyclopropyl-4-(1H-pyrrolo[2,3-c]pyridin-7-yl)-1H-pyrazol-1-yl)cyclobutyl)methyl)amino)-2-(2,6-dioxopiperidin-3-yl)isoindoline-1,3-dione]	> 1000 nM	10 to 100 nM	> 1000 nM	10 to 100 nM
CN1CC(Nc2cccc(-c3cn([C@H]4C[C@H](CNc5ccc6c(c5)C(=O)N(C5CCC(=O)NC5=O)C6=O)C4)nc3C3CC3)n2)C1 (stereo partly drawn) [GS-292, 5-(((trans-3-(3-Cyclopropyl-4-(6-((1-methylazetidin-3-yl)amino)pyridin-2-yl)-1H-pyrazol-1-yl)cyclobutyl)methyl)amino)-2-(2,6-dioxopiperidin-3-yl)isoindoline-1,3-dione]	> 1000 nM	> 1000 nM	> 1000 nM	> 1000 nM
O=C1CCC(N2C(=O)c3ccc(NC[C@H]4C[C@H](n5cc(-c6cc7cn[nH]c7cn6)c(C6CC6)n5)C4)cc3C2=O)C(=O)N1 (stereo partly drawn) [GS-293, 5-(((trans-3-(3-Cyclopropyl-4-(1H-pyrazolo[3,4-c]pyridin-5-yl)-1H-pyrazol-1-yl)cyclobutyl)methyl)amino)-2-(2,6-dioxopiperidin-3-yl)isoindoline-1,3-dione]	> 1000 nM	100 to 1000 nM	100 to 1000 nM	10 to 100 nM
O=C1CCC(N2C(=O)c3ccc(NC[C@H]4C[C@H](n5cc(-c6cc(NC7CCNCC7)ccn6)c(C6CC6)n5)C4)cc3C2=O)C(=O)N1 (stereo partly drawn) [GS-294, 5-(((trans-3-(3-Cyclopropyl-4-(4-(piperidin-4-ylamino)pyridin-2-yl)-1H-pyrazol-1-yl)cyclobutyl)methyl)amino)-2-(2,6-dioxopiperidin-3-yl)isoindoline-1,3-dione]	> 1000 nM	> 1000 nM	> 1000 nM	> 1000 nM
CN1CCC(Nc2ccnc(-c3cn([C@H]4C[C@H](CNc5ccc6c(c5)C(=O)N(C5CCC(=O)NC5=O)C6=O)C4)nc3C3CC3)c2)CC1 (stereo partly drawn) [GS-295, 5-(((trans-3-(3-Cyclopropyl-4-(4-((1-methylpiperidin-4-yl)amino)pyridin-2-yl)-1H-pyrazol-1-yl)cyclobutyl)methyl)amino)-2-(2,6-dioxopiperidin-3-yl)isoindoline-1,3-dione]	> 1000 nM	> 1000 nM	> 1000 nM	> 1000 nM
O=C1CCC(N2C(=O)c3ccc(NC[C@H]4C[C@H](n5cc(-c6ncccc6F)c(C6CC6)n5)C4)cc3C2=O)C(=O)N1 (stereo partly drawn) [GS-296, 5-(((trans-3-(3-Cyclopropyl-4-(3-fluoropyridin-2-yl)-1H-pyrazol-1-yl)cyclobutyl)methyl)amino)-2-(2,6-dioxopiperidin-3-yl)isoindoline-1,3-dione]	100 to 1000 nM	10 to 100 nM	10 to 100 nM	10 to 100 nM
O=C1CCC(N2C(=O)c3ccc(NC[C@H]4C[C@H](n5cc(-c6ccc(N7CCNCC7)cn6)c(C6CC6)n5)C4)cc3C2=O)C(=O)N1 (stereo partly drawn) [GS-297, 5-(((trans-3-(3-Cyclopropyl-4-(5-(piperazin-1-yl)pyridin-2-yl)-1H-pyrazol-1-yl)cyclobutyl)methyl)amino)-2-(2,6-dioxopiperidin-3-yl)isoindoline-1,3-dione]	> 1000 nM	> 1000 nM	> 1000 nM	> 1000 nM
CN1CCN(c2ccc(-c3cn([C@H]4C[C@H](CNc5ccc6c(c5)C(=O)N(C5CCC(=O)NC5=O)C6=O)C4)nc3C3CC3)nc2)CC1 (stereo partly drawn) [GS-298, 5-(((trans-3-(3-Cyclopropyl-4-(5-(4-methylpiperazin-1-yl)pyridin-2-yl)-1H-pyrazol-1-yl)cyclobutyl)methyl)amino)-2-(2,6-dioxopiperidin-3-yl)isoindoline-1,3-dione]	> 1000 nM	> 1000 nM	> 1000 nM	> 1000 nM
O=C1CCC(N2C(=O)c3ccc(NC[C@H]4C[C@H](n5cc(-c6nccc7[nH]ncc67)c(C6CC6)n5)C4)cc3C2=O)C(=O)N1 (stereo partly drawn) [GS-299, 5-(((trans-3-(3-Cyclopropyl-4-(1H-pyrazolo[4,3-c]pyridin-4-yl)-1H-pyrazol-1-yl)cyclobutyl)methyl)amino)-2-(2,6-dioxopiperidin-3-yl)isoindoline-1,3-dione]	10 to 100 nM	< 10 nM	< 10 nM	< 10 nM
CNc1ccc(-c2cn([C@H]3C[C@H](CNc4ccc5c(c4)C(=O)N(C4CCC(=O)NC4=O)C5=O)C3)nc2C2CC2)nc1 (stereo partly drawn) [GS-301, 5-(((trans-3-(3-Cyclopropyl-4-(5-(methylamino)pyridin-2-yl)-1H-pyrazol-1-yl)cyclobutyl)methyl)amino)-2-(2,6-dioxopiperidin-3-yl)isoindoline-1,3-dione]	> 1000 nM	100 to 1000 nM	> 1000 nM	100 to 1000 nM
O=C1CCC(N2C(=O)c3ccc(NC[C@H]4C[C@H](n5cc(-c6ccc(NC7CCNCC7)cn6)c(C6CC6)n5)C4)cc3C2=O)C(=O)N1 (stereo partly drawn) [GS-302, 5-(((trans-3-(3-Cyclopropyl-4-(5-(piperidin-4-ylamino)pyridin-2-yl)-1H-pyrazol-1-yl)cyclobutyl)methyl)amino)-2-(2,6-dioxopiperidin-3-yl)isoindoline-1,3-dione]	> 1000 nM	> 1000 nM	> 1000 nM	> 1000 nM
CN1CCC(Nc2ccc(-c3cn([C@H]4C[C@H](CNc5ccc6c(c5)C(=O)N(C5CCC(=O)NC5=O)C6=O)C4)nc3C3CC3)nc2)CC1 (stereo partly drawn) [GS-303, 5-(((trans-3-(3-Cyclopropyl-4-(5-((1-methylpiperidin-4-yl)amino)pyridin-2-yl)-1H-pyrazol-1-yl)cyclobutyl)methyl)amino)-2-(2,6-dioxopiperidin-3-yl)isoindoline-1,3-dione]	> 1000 nM	> 1000 nM	> 1000 nM	> 1000 nM
O=C1CCC(N2C(=O)c3ccc(NC[C@H]4C[C@H](n5cc(-c6ncccc6NC6CCNCC6)c(C6CC6)n5)C4)cc3C2=O)C(=O)N1 (stereo partly drawn) [GS-304, 5-(((trans-3-(3-Cyclopropyl-4-(3-(piperidin-4-ylamino)pyridin-2-yl)-1H-pyrazol-1-yl)cyclobutyl)methyl)amino)-2-(2,6-dioxopiperidin-3-yl)isoindoline-1,3-dione]	> 1000 nM	> 1000 nM	> 1000 nM	> 1000 nM
Cc1nc(-c2cn([C@H]3C[C@H](CNc4ccc5c(c4)C(=O)N(C4CCC(=O)NC4=O)C5=O)C3)nc2C2CC2)ccc1F (stereo partly drawn) [GS-305, 5-(((trans-3-(3-Cyclopropyl-4-(5-fluoro-6-methylpyridin-2-yl)-1H-pyrazol-1-yl)cyclobutyl)methyl)amino)-2-(2,6-dioxopiperidin-3-yl)isoindoline-1,3-dione]	10 to 100 nM	< 10 nM	10 to 100 nM	< 10 nM
CNc1ccnc(-c2cn([C@H]3C[C@H](CNc4ccc5c(c4)C(=O)N(C4CCC(=O)NC4=O)C5=O)C3)nc2C2CC2)c1 (stereo partly drawn) [GS-306, 5-(((trans-3-(3-Cyclopropyl-4-(4-(methylamino)pyridin-2-yl)-1H-pyrazol-1-yl)cyclobutyl)methyl)amino)-2-(2,6-dioxopiperidin-3-yl)isoindoline-1,3-dione]	> 1000 nM	> 1000 nM	> 1000 nM	> 1000 nM
